Measured values published in PubChem BioAssay AID248 (DTP/NCI, 2004).
Values joined by “and” are separate entries in the source; they are usually repeats but may differ in a detail not shown here. Equal values may be shown once. Toxic doses and inconclusive results are not listed. Rule as the data show it: active = T/C of 150% or more; inactive = T/C below 125%.

Tested on: L1210 leukemia ip in BDF1 mice, survival T/C
Experiment: NCI In Vivo Anticancer Drug Screen. Data for tumor model L1210 Leukemia (intraperitoneal) in B6D2F1 (BDF1) mice
Details: endpoint: mean survival time, higher = longer survival
Procedure, shortened: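 Mice bearing the transplanted tumor received compound or vehicle. Survival of the treated group was divided by that of the vehicle-treated control group to give the ratio.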

[1] = dose: 100.0 mg/kg/injection, schedule: Q04DX002 (ip), vehicle: saline
[2] = dose: 200.0 mg/kg/injection, schedule: Q04DX002 (ip), vehicle: saline
[3] = dose: 400.0 mg/kg/injection, schedule: Q04DX002 (ip), vehicle: saline
[4] = dose: 100.0 mg/kg/injection, schedule: Q04DX003 (ip), vehicle: saline
[5] = dose: 200.0 mg/kg/injection, schedule: Q04DX003 (ip), vehicle: saline
[6] = dose: 400.0 mg/kg/injection, schedule: Q04DX003 (ip), vehicle: saline
[7] = dose: 100.0 mg/kg/injection, schedule: Q01DX001 (ip), vehicle: saline with Tween-80
[8] = dose: 200.0 mg/kg/injection, schedule: Q01DX001 (ip), vehicle: carboxymethylcellulose (CMC)
[9] = dose: 400.0 mg/kg/injection, schedule: Q01DX001 (ip), vehicle: carboxymethylcellulose (CMC)
[10] = dose: 50.0 mg/kg/injection, schedule: Q01DX001 (ip), vehicle: saline
[11] = dose: 100.0 mg/kg/injection, schedule: Q01DX001 (ip), vehicle: saline
[12] = dose: 100.0 mg/kg/injection, schedule: Q01DX009 (ip), vehicle: saline
[13] = dose: 200.0 mg/kg/injection, schedule: Q01DX001 (ip), vehicle: saline
[14] = dose: 400.0 mg/kg/injection, schedule: Q01DX001 (ip), vehicle: saline
[15] = dose: 25.0 mg/kg/injection, schedule: Q01DX001 (ip), vehicle: saline with Tween-80
[16] = dose: 50.0 mg/kg/injection, schedule: Q01DX001 (ip), vehicle: saline with Tween-80
[17] = dose: 100.0 mg/kg/injection, schedule: Q01DX009 (ip), vehicle: Klucel (hydroxypropylcellulose) (HPC)
[18] = dose: 200.0 mg/kg/injection, schedule: Q01DX009 (ip), vehicle: Klucel (hydroxypropylcellulose) (HPC)
[19] = dose: 50.0 mg/kg/injection, schedule: Q04DX003 (ip), vehicle: saline
[20] = dose: 75.0 mg/kg/injection, schedule: Q01DX001 (ip), vehicle: saline
[21] = dose: 100.0 mg/kg/injection, schedule: Q04DX002 (ip), vehicle: Klucel (hydroxypropylcellulose) (HPC)
[22] = dose: 50.0 mg/kg/injection, schedule: Q01DX009 (ip), vehicle: Klucel (hydroxypropylcellulose) (HPC)
[23] = dose: 100.0 mg/kg/injection, schedule: Q04DX003 (ip), vehicle: saline with Tween-80
[24] = dose: 12.5 mg/kg/injection, schedule: Q01DX009 (ip), vehicle: saline with Tween-80
[25] = dose: 50.0 mg/kg/injection, schedule: Q01DX009 (ip), vehicle: saline with Tween-80
[26] = dose: 100.0 mg/kg/injection, schedule: Q01DX001 (ip), vehicle: carboxymethylcellulose (CMC)

Measured: T/C

Cc1ccc(CC2=NC(C)(C)CC(C)O2)cc1 (stereo not drawn)
inactive: [1] 101 % of control | [2] 93 % of control | [3] 106 % of control

Cc1ccc(S(=O)(=O)NC(=O)NC(C)C(=O)O)cc1 (stereo not drawn)
inactive: [4] 102 % of control | [5] 97 % of control | [6] 96 % of control

C=C1CC(C)(C)C(c2ccccc2)OC1=O (stereo not drawn)
inactive: [7] 107 % of control | dose: 200.0 mg/kg/injection, schedule: Q01DX001 (ip), vehicle: saline with Tween-80 102 % of control

CCCCCCCCCCCC1=C(O)C(=O)C(CC2=C(O)C(=O)C(CCCCCCCCCCC)=C(O)C2=O)=C(O)C1=O
inactive: [8] 100 % of control | [9] 103 % of control

CC1(C)C(=O)C(C)(C)C1=NO
inactive: [4] 103 % of control | [5] 95 % of control | [6] 103 % of control

CS(=O)(=O)OCCN(CCOS(C)(=O)=O)c1ccc(/C=N/Nc2ncnc3nc[nH]c23)cc1
inactive: dose: 12.5 mg/kg/injection, schedule: Q01DX009 (ip), vehicle: saline 124 % of control | [10] 119 % of control | dose: 89.0 mg/kg/injection, schedule: Q01DX001 (ip), vehicle: other 105 % of control | [11] 107 % of control | [12] 98 % of control | dose: 133.0 mg/kg/injection, schedule: Q01DX001 (ip), vehicle: other 110 % of control | dose: 200.0 mg/kg/injection, schedule: Q01DX001 (ip), vehicle: other 103 % of control | [13] 119 % of control | dose: 300.0 mg/kg/injection, schedule: Q01DX001 (ip), vehicle: other 114 % of control | [14] 113 % of control

COCn1cnc2c(ccn2C2OC(CO)C(O)C2O)c1=O (stereo not drawn)
inactive: [10] 104 % of control | [11] 93 % of control | [13] 106 % of control | [14] 106 % of control

Cc1[nH]c(=O)[nH]c(=O)c1N=Nc1ccccc1
inactive: [15] 95 % of control | [16] 98 % of control | [7] 95 % of control

CCN(CC)c1ccccc1S(=O)(=O)O
inactive: [11] 104 % of control | [13] 95 % of control | [14] 98 % of control

CC(=O)N(C)c1ccc(NC(=O)C2CCCCC2C(=O)O)cc1 (stereo not drawn)
inactive: [17] 98 % of control | [18] 95 % of control | dose: 400.0 mg/kg/injection, schedule: Q01DX009 (ip), vehicle: Klucel (hydroxypropylcellulose) (HPC) 93 % of control

Cc1cc(=O)[nH]c(NCCCCC(N)C(=O)O)n1 (stereo not drawn)
inactive: [19] 103 % of control | [4] 100 % of control | [5] 101 % of control

COc1ccc(CNC(C)(C)CO)c(OC)c1
inactive: [20] 101 % of control | dose: 150.0 mg/kg/injection, schedule: Q01DX001 (ip), vehicle: saline 102 % of control | dose: 300.0 mg/kg/injection, schedule: Q01DX001 (ip), vehicle: saline 98 % of control

NC(=O)c1cccn1-c1ccc2ncccc2c1
inactive: dose: 25.0 mg/kg/injection, schedule: Q04DX002 (ip), vehicle: Klucel (hydroxypropylcellulose) (HPC) 89 % of control | dose: 50.0 mg/kg/injection, schedule: Q04DX002 (ip), vehicle: Klucel (hydroxypropylcellulose) (HPC) 92 % of control | [21] 86 % of control

Oc1ccccc1O.[O-]c1ccccc1[O-].[O-]c1ccccc1[O-].[O]=[V+2]
inactive: dose: 4.0 mg/kg/injection, schedule: Q01DX015 (ip), vehicle: saline 100 % of control | dose: 8.0 mg/kg/injection, schedule: Q01DX015 (ip), vehicle: saline 94 % of control | dose: 12.5 mg/kg/injection, schedule: Q04DX003 (ip), vehicle: saline 111 % of control | dose: 16.0 mg/kg/injection, schedule: Q01DX015 (ip), vehicle: saline 96 % of control | dose: 18.75 mg/kg/injection, schedule: Q01DX009 (ip), vehicle: saline 90 % of control | dose: 25.0 mg/kg/injection, schedule: Q04DX003 (ip), vehicle: saline 102 % of control | dose: 32.0 mg/kg/injection, schedule: Q01DX015 (ip), vehicle: saline 102 % of control | dose: 37.5 mg/kg/injection, schedule: Q01DX009 (ip), vehicle: saline 101 % of control | [19] 100 % of control | dose: 75.0 mg/kg/injection, schedule: Q04DX003 (ip), vehicle: saline 97 % of control

NC(Cc1cnc(N=Nc2ccc(N=Nc3ncc(CC(N)C(=O)O)[nH]3)cc2)[nH]1)C(=O)O (stereo not drawn)
inactive: [22] 89 % of control | [17] 89 % of control

Cc1cccc(C2=N/C(=C\c3c(O)ccc4ccccc34)C2=O)c1
inactive: [1] 120 % of control | [2] 95 % of control | [3] 98 % of control

O=C(Nc1ccccc1C(F)(F)F)OCCOc1ccccc1
inactive: dose: 100.0 mg/kg/injection, schedule: Q01DX009 (ip), vehicle: gum acacia 92 % of control | dose: 200.0 mg/kg/injection, schedule: Q01DX009 (ip), vehicle: gum acacia 88 % of control | dose: 400.0 mg/kg/injection, schedule: Q01DX009 (ip), vehicle: gum acacia 93 % of control

CN(C)C(=O)NNC(=O)c1ccc(Cl)cc1
inactive: [23] 100 % of control | dose: 200.0 mg/kg/injection, schedule: Q04DX003 (ip), vehicle: saline with Tween-80 95 % of control

CN(CCc1cnc2nc(N)nc(N)c2n1)c1ccc(C(=O)O)cc1
inactive: [20] 115 % of control

CC(C)NC(=O)Oc1cccc(NC(=O)C(C)C)c1
inactive: dose: 25.0 mg/kg/injection, schedule: Q04DX003 (ip), vehicle: saline with Tween-80 101 % of control | dose: 50.0 mg/kg/injection, schedule: Q04DX003 (ip), vehicle: saline with Tween-80 92 % of control | [23] 92 % of control and 95 % of control | dose: 400.0 mg/kg/injection, schedule: Q04DX003 (ip), vehicle: saline with Tween-80 89 % of control

CCCCCCCCC1N(C)CCCN1C
inactive: [24] 98 % of control | [15] 105 % of control | dose: 25.0 mg/kg/injection, schedule: Q01DX009 (ip), vehicle: saline with Tween-80 86 % of control | [16] 105 % of control | [25] 98 % of control and 101 % of control | [7] 97 % of control and 101 % of control

Cn1c(C=O)cc2ccccc21
inactive: [26] 90 % of control | [12] 94 % of control | [1] 110 % of control | [8] 98 % of control | dose: 200.0 mg/kg/injection, schedule: Q01DX009 (ip), vehicle: saline 97 % of control | [2] 104 % of control | [9] 102 % of control | [3] 100 % of control

CCN(CCO)CCNc1ccc(CO)c2sc3cc(Cl)ccc3c(=O)c12
inactive: [22] 91 % of control | [17] 96 % of control | [18] 91 % of control

CCCCS(=O)(=O)F
inactive: dose: 100.0 mg/kg/injection, schedule: Q04DX002 (ip), vehicle: saline with Tween-80 93 % of control

CC1(N2CCCC2)CCCCC1
inactive: dose: 50.0 mg/kg/injection, schedule: Q01DX001 (ip), vehicle: carboxymethylcellulose (CMC) 94 % of control | [26] 99 % of control

COc1ccccc1NC(=S)Nc1ccccc1
inactive: [21] 97 % of control | dose: 200.0 mg/kg/injection, schedule: Q04DX002 (ip), vehicle: Klucel (hydroxypropylcellulose) (HPC) 101 % of control | dose: 400.0 mg/kg/injection, schedule: Q04DX002 (ip), vehicle: Klucel (hydroxypropylcellulose) (HPC) 108 % of control

COCNC(=S)N/N=C/c1ccccn1
inactive: [24] 124 % of control | [25] 124 % of control

N#CC(C#N)=C1C(=O)c2ccccc2-c2ccccc21
inactive: [11] 107 % of control | [13] 109 % of control | [14] 105 % of control
